# Reference: US6376753B1, “PURIFIED CYTOCHROME P450 POLYPEPTIDE CYP76B1 FROM HELIANTHUS TUBEROSUS AND ITS APPLICATIONS AS BIOCATALYST IN PARTICULAR FOR THE DEGRADATION OF ENVIRONMENTAL POLLUTANTS AND FOR ALTERING THE RESISTANCE OF PLANTS SENSITIVE TO PHENYLUREA FAMILY OF HERBICIDES” (priority 1997, dated 2002)
# Tested on: tobacco transformed with CYP76B1
# Assay: Leaf pieces of tobacco transformed with CYP76B1 aged on herbicide medium
# Format: cell-based
# Settings: 10 days on MS medium containing 0.5 μM linuron; versus empty plasmid
# Procedure: FIG. 15 : Leaf pieces from tobacco transformed with CYP76B1 (left) or with an empty plasmid (right) were aged for 10 days on Murashige and Skoog (MS) medium containing 0.5 μM linuron.
# The CYP76B1 cDNA was inserted in vector pBDX (Gachotte D., 1995). The resulting vector was mobilized into Agrobacterium tumefaciens strain LBA4404 by triparental mating (Ditta G. et al., 1980). Plant transformation was realized according to Horsch et al. (1985): tobacco leaf disks were soaked for 10 minutes in an Agrobacterium solution, blotted dry and placed on MS callus-inducing medium containing 500 μg/ml cefotaxime and 100 μg/ml kanamycin. After four to six weeks, shoots were transferred on MS-rooting medium containing 100 μg/ml cefotaxime and 100 μg/ml kanamycin. After rooting, plants were transferred in soil.
compound,measurement,value
CON(C)C(=O)Nc1ccc(Cl)c(Cl)c1 [linuron],chlorophyll destruction in leaf pieces,avoids chrorophyll destruction
